Article PMC6911621 (Cancer research, 2019)
One block for each molecule: values may come before it. Ends that are not written are not given here. Peptide text beside a SMILES is read from it. * marks the point of attachment. Biotin = O=C1N[C@H]2[C@H](CS[C@H]2CCCCC(=O)*)N1; Cbz = O=C(OCc1ccccc1)*; Ahx = NCCCCCC(=O)O; CH2F = FC*

Legend:
tumor cells [1] = experiment: Tumor cell death with pan-caspase inhibitor; type: cell-based; conditions: plus cell-permeable MFF peptide #8–11, Supplementary Fig. S4D
tumor cells [2] = experiment: HMGB1 release; type: cell-based; conditions: Supplementary Fig. S4F and G
[3] = target: endogenous voltage-dependent anion channel-1 (VDAC1) (human (endogenous in PC3)) (UniProt P21796)
Chain of endogenous voltage-dependent anion channel-1 (VDAC1) (human (endogenous in PC3)) (P21796 whole entry): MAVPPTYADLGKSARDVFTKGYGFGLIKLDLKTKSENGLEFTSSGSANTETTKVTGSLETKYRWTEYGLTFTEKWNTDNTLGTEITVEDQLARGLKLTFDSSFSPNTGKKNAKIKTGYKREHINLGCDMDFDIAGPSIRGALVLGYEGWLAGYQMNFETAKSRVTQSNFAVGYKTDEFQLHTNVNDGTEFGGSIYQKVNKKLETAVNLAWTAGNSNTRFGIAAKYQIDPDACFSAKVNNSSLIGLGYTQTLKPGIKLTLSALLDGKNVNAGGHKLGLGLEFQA

Molecule: COC(=O)C[C@H](NC(=O)[C@H](C)NC(=O)[C@@H](NC(=O)OCc1ccccc1)C(C)C)C(=O)CF [Z-VAD-fmk] (Cbz-Val-Ala-Asp(OMe)-CH2F)
reversal of cell death induced by cell-permeable MFF peptide #8–11 (tumor cells [1]): did not significantly reduce tumor cell death

Molecule: MFF-DD mutant peptide #8–11: MFF peptide #8–11 containing the double mutation Arg225Asp/Arg236Asp (DD) ({Biotin-Ahx}-RQIKIWFQNRRMKSADGILSLIQSSTDRAYQQIL)
HMGB1 release (tumor cells [2]): did not cause HMGB1 release

other [3]: 10 µM
Molecule: {Biotin-Ahx}-RQIKIWFQNRRMKSARGILSLIQSSTRRAYQQIL [cell-permeable MFF peptide #8-11]
